Results on three compounds are retold here after US8334298B2, “Treatment or prevention of ovarian hyperstimulation syndrome (OHSS) using a dopamine agonist” (Ferring International Center S.A., priority 2005, dated 2012).

The conditions of data set [1]: oncolytic models; cited from earlier work.
For a further data set, the system named is OHSS rats. In words: Vascular permeability (Evans Blue) in OHSS rats treated with bromocriptine (Example 1). The following applies: VP 48 h after hCG. In kind it is in vivo, Wistar rats. On the procedure: Drug Treatment. Immature female Wistar rats were employed. In the OHSS group (n=8), Pregnant Mare's Serum Gonadotropin (PMSG) was administered at 10 IU/day for 4 days, followed by hCG (30 IU) on the fifth day. In the mild (i.e., ovarian stimulation) group (n=8), 10 IU of PMSG was administered followed 2 days later by administration of 10 IU of hCG. In the control group, 1 IU of PMSG was administered followed by 1 IU of hCG 48 hrs later. Vascular Permeability Measurement. Vascular permeability was measured 48 hours following hCG administration. 0.2 ml of 5 mM Evans Blue stain was injected via the femoral vein. After 30 minutes, the peritoneal cavity was irrigated with saline. Light absorption was measured in the recovered fluid at 595 nm and the vascular permeability was expressed as μg Evans blue/100 g body weight. In a second series of experiments, varying doses of bromocriptine were administered in a group of rats induced to develop OHSS with 40 IU of PMSG followed by 30 IU of hCG. 1.6, 4.0, 10.0 and 25.0 mg/kg of bromocriptine were intraperitoneally administered on the day of hCG administration and 24 hours later. VP was measured 48 hours following hCG administration.

For data set [2], the system named is patients with treatment-resistant OHSS. The following applies: oral docarpamine, 27 patients; cited from earlier work.

Each structure is given as a SMILES string.

Take `Cc1cc(C)c(/C=C2\C(=O)Nc3ccccc32)[nH]1` [SU5416]: the toxic effects entry in data set [1] was “serious toxic effects”.

`CC(C)C[C@H]1C(=O)N2CCC[C@H]2[C@]2(O)O[C@](NC(=O)[C@@H]3C=C4c5cccc6[nH]c(Br)c(c56)C[C@H]4N(C)C3)(C(C)C)C(=O)N12` [bromocriptine]: the vascular permeability was 15.3±3.3 μg Evans Blue/100 g body weight with OHSS rats (1.6 mg bromocriptine i.p. on day of hCG and 24 h later, p=0.04); 14.2±2.2 μg Evans Blue/100 g body weight with OHSS rats (4 mg bromocriptine i.p. on day of hCG and 24 h later, p=0.04); 10.1±2.6 μg Evans Blue/100 g body weight with OHSS rats (10 mg bromocriptine i.p. on day of hCG and 24 h later, p=0.009); 8.0±1.9 μg Evans Blue/100 g body weight in the data set with OHSS rats (25 mg bromocriptine i.p. on day of hCG and 24 h later, p=0.001).

Regarding `CCOC(=O)Oc1ccc(CCNC(=O)[C@H](CCSC)NC(C)=O)cc1OC(=O)OCC` [docarpamine], in data set [2], the ascites result is listed as “ascites was decreased” and the diuresis entry was “Diuresis was increased in some women”.
